Laboratory results from ChEMBL document CHEMBL3217733, “Synthesis of precursors and macrocycle analogs of aerucyclamides as anti-trypanosomal agents” (Medchemcomm, 2012).

Legend:
[1] = system: Trypanosoma brucei brucei; assay: Antitrypanosomal activity against Trypanosoma brucei brucei strain 427 assessed as growth inhibition at 25 uM; format: functional; conditions: read-out: GI
[2] = system: Trypanosoma brucei brucei; assay: Antitrypanosomal activity against infective form of Trypanosoma brucei brucei strain 427 assessed as growth inhibition; format: functional, organism-based
[3] = Selectivity index, ratio of EC50 for mouse J774 cells to EC50 for infective form of Trypanosoma brucei brucei strain 427; format: toxicity, cell-based; conditions: read-out: Ratio EC50
J774 = assay: Cytotoxicity against […] mouse J774 cells after 24 hrs by WST1 assay; format: cell-based; conditions: J774, 24 h

For `CC[C@H](C)[C@H](NC(=O)c1csc([C@@H](NC(=O)c2csc(CNC(=O)OC(C)(C)C)n2)[C@@H](C)CC)n1)c1nc(C(=O)OC)co1`, the inhibition of growth at 25 µM [1] was 20.9%.
`CCOC(=O)c1csc(CNC(=O)OC(C)(C)C)n1` gave an inhibition of growth at 25 µM [1] of 26.4%.
`CC[C@H](C)[C@@H]1NC(=O)c2coc(n2)[C@H]([C@@H](C)CC)NC(=O)c2csc(n2)CNC(=O)c2coc1n2` gave an inhibition of growth at 25 µM [1] of 16.2%.
Molecule `CC[C@H](C)[C@@H]1NC(=O)c2csc(n2)[C@H]([C@@H](C)CC)NC(=O)c2csc(n2)CNC(=O)c2coc1n2` has an inhibition of growth at 25 µM [1] of 100%, an EC50 [2] of 11.4 µM and a selectivity ratio [3] of 4.3. The EC50 (J774) was 48.8 µM.
Molecule `CC[C@H](C)[C@H](NC(=O)c1csc([C@@H](NC(=O)c2csc(CNC(=O)OC(C)(C)C)n2)[C@@H](C)CC)n1)c1nc(C(=O)OC)c(C)o1` has an inhibition of growth at 25 µM [1] of 79.1%, an EC50 [2] of 6 µM and a selectivity ratio [3] of 150. The EC50 (J774) was 915 µM.
With `CN(C)c1ccc2nc3ccc(=[N+](C)C)cc-3sc2c1` [METHYLENE BLUE CATION] the EC50 [2] was 0.4 µM.
`CC[C@H](C)[C@@H]1NC(=O)c2coc(n2)[C@H]([C@@H](C)CC)NC(=O)c2coc(n2)[C@H]([C@@H](C)CC)NC(=O)c2coc1n2` gave an inhibition of growth at 25 µM [1] of 13.5%.
`CC[C@H](C)[C@H](NC(=O)c1csc(CNC(=O)OC(C)(C)C)n1)c1nc(C(=O)OC)cs1` gave an inhibition of growth at 25 µM [1] of 11.5%.
`CC[C@H](C)[C@H](NC(=O)c1csc(CNC(=O)OC(C)(C)C)n1)c1nc(C(=O)OC)co1` showed an inhibition of growth at 25 µM [1] of 8.1%.
With `CC[C@H](C)[C@H](NC(=O)c1csc([C@@H](NC(=O)OC(C)(C)C)[C@@H](C)CC)n1)c1nc(C(=O)OC)co1` the inhibition of growth at 25 µM [1] was 41.1%.
Work on `CC[C@H](C)[C@@H]1NC(=O)c2csc(n2)[C@H]([C@@H](C)CC)NC(=O)c2csc(n2)CNC(=O)c2nc1oc2C` [MACROCYCLE] yielded an inhibition of growth at 25 µM [1] of 41.7%.
`CC[C@H](C)[C@H](NC(=O)c1csc(CNC(=O)OC(C)(C)C)n1)c1nc(C(=O)N[C@H](c2nc(C(=O)OC)co2)[C@@H](C)CC)co1` gave an inhibition of growth at 25 µM [1] of 18.3%.
